Measurements reported in patent US11851428B2, “Activator of TREK (TWIK RElated K+channels) channels” (ONO PHARMACEUTICAL CO., LTD., priority 2016, dated 2023).
“Also recorded” adds a separate entry of the source. Like-named read-outs stand apart in the source and are kept apart here.

Columns and labels:
[1] = target: T1, human TREK-1 (Homo sapiens, UniProt O95069); assay: thallium flux assay (TREK1 activation normalized to BL-1249); assay type: cell-based
T1 construct: expressed in transfected cells
T1 sequence (O95069 1-426): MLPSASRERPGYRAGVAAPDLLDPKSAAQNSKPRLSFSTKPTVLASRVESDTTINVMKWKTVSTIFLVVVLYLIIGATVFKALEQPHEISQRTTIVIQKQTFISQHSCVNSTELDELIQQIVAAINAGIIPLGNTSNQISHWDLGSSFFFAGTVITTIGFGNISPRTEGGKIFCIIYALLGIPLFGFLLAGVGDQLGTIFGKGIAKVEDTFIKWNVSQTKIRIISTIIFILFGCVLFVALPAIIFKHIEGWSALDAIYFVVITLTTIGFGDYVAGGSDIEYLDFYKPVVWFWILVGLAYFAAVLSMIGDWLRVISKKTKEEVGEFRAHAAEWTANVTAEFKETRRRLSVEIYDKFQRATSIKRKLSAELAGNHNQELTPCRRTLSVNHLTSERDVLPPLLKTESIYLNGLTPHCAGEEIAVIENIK
Protocol: The term “thallium flux assay” herein refers to a fluorescence-based assay used to monitor the activity of TREK channels. Thallium is a congener of potassium that readily fluxes through the pore of TREK channels. Thallium flux is measured using a commercially available, thallium-sensitive fluorescent dye called Thallos. The detail method is described below.
Method 1 (Thallium Flux Assay);
CHO-K1 cells stably expressing human TREK-1 or HEK293 cells stably expressing human TREK-2 are plated in 384-well plates, cultured overnight, loaded with Thallos dye the following day, treated with test compounds for 10 min, and then treated with thallium stimulus buffer to initiate thallium flux. The change in fluorescence at 25 seconds after thallium addition is normalized to baseline fluorescence (fluorescent intensity at 25 sec after Tl^+ addition)/(average of fluorescent intensity at pre-read).

[2] = system: ICR mice; assay: acetic acid writhing assay; assay type: in vivo, mouse; conditions: for number of writhes induced by acetic acid: ICR mice, 2 h before acetic acid i.p., counted for 30 min, vs vehicle; for number of writhes induced by acetic acid (FIGURE legend): mouse, p.o., dose not stated in the legend, *p<0.05 vs vehicle
Protocol: d. Analgesic Effect in Acetic Acid Writhing Assay
ICR mice were pretreated with vehicle (0.5 w/v % methyl cellulose, p.o.) or Example 1-25 compounds (0.3, 1, 3 mg/kg, p.o.) or Example 2 compounds (1, 10, 300 mg/kg, p.o.) or indomethacin (10 mg/kg, p.o.). Compounds were suspended in 0.5 w/v % methyl cellulose and indomethacin was dissolved in 0.7% sodium bicarbonate. All drugs were administered in a volume of 10 mL/kg. Two hours after administration of the disclosed compounds and vehicle, or one hour after administration of indomethacin, the animals were injected with acetic acid (0.7% v/v in saline, 10 mL/kg, i.p.). The number of writhes (characterized by contraction of the abdominal musculature and extension of the limbs) was then counted for 30 min. Analgesic effect was evaluated by comparing the number of writhes between the rest compounds group and the vehicle group.

[3] = concentration of Example compound 10 μM, normalized to 10 μM BL-1249, CHO-K1 cells stably expressing human TREK-1, read-out: TREK1 activation RBL-1249 (%)

SMILES: O=C(NCc1ccc(OC(F)(F)F)cc1F)c1ccc2ncnn2c1 [Example 1-25, N-[2-fluoro-4-(trifluoromethoxy)benzyl][1,2,4]triazolo[1,5-a]pyridine-6-carboxamide]
- activation at 10 µM [1, 3]: 82%
- number of writhes induced by acetic acid ([2]; 3 mg/kg p.o., 3 mg/kg): significantly decreased the number of writhes; also recorded: the same degree as indomethacin 10 mg/kg
- number of writhes induced by acetic acid (FIGURE legend) [2]: inhibit the number of writhes induced by acetic acid

SMILES: Cc1cc(OC(F)(F)F)ccc1CNC(=O)c1ccc(-n2cncn2)nc1 [Example 2, N-[2-Methyl-4-(trifluoromethoxy)benzyl]-6-(1H-1,2,4-triazol-1-yl)nicotinamide]
- activation at 30 µM ([1]; concentration of Example compound 30 μM, normalized to 10 μM BL-1249, CHO-K1 cells stably expressing human TREK-1, read-out: TREK1 activation RBL-1249 (%)): 20%
- number of writhes induced by acetic acid ([2]; 300 mg/kg p.o., 300 mg/kg): significantly decreased the number of writhes; also recorded: the same degree as indomethacin 10 mg/kg
- number of writhes induced by acetic acid (FIGURE legend) [2]: inhibit the number of writhes induced by acetic acid

SMILES: Nc1c(C(=O)NCc2ccc(OC(F)(F)F)cc2Cl)cnc2ccnn12 [Example 9-14, 7-amino-N-[2-chloro-4-(trifluoromethoxy)benzyl]pyrazolo[1,5-a]pyrimidine-6-carboxamide]
- activation at 10 µM [1, 3]: 79%

SMILES: O=C(NCc1ccc(OC(F)(F)F)cc1Cl)c1ccc(-c2ncc[nH]2)cc1 [Example 9-15, N-[2-chloro-4-(trifluoromethoxy)benzyl]-4-(1H-imidazol-2-yl)benzamide]
- activation at 10 µM [1, 3]: 59%

SMILES: O=C(NCc1ccc(OC(F)(F)F)cc1Cl)c1ccc2nnnn2c1 [Example 9-16, N-[2-chloro-4-(trifluoromethoxy)benzyl]tetrazolo[1,5-a]pyridine-6-carboxamide]
- activation at 10 µM [1, 3]: 95%

SMILES: O=C(NCc1ccc(OC(F)(F)F)cc1Cl)c1ccn2nnnc2c1 [Example 9-17]
- TREK1 activation RBL-1249 (%) ([1]; concentration of Example compound 10 μM, normalized to 10 μM BL-1249, CHO-K1 cells stably expressing human TREK-1): 78%

SMILES: Cc1cc2ncc(C(=O)NCc3ccc(OC(F)(F)F)cc3Cl)cn2n1 [Example 9-19, N-[2-chloro-4-(trifluoromethoxy)benzyl]-2-methylpyrazolo[1,5-a]pyrimidine-6-carboxamide]
- activation at 10 µM [1, 3]: 68%

SMILES: CS(=O)(=O)Nc1ccc(C(=O)NCc2ccc(Cl)cc2Cl)cc1 [N-(2,4-dichlorobenzyl)-4-[(methylsulfonyl)amino]benzamide]
- activation at 30 µM ([1]; CHO-K1, read-out: TREK1 activation RBL-1249 (%)): 54%
